Measurements published in patent publication US20210230213A1, “ARAMCHOL SALTS” (GALMED RESEARCH AND DEVELOPMENT LTD., priority 2013, published 2021).
Where “and” joins values, the source holds several entries; their conditions need not be identical. Identical values can stand only once.

What was measured:
Bulk and tapped density = format: physicochemical
Source text: Measurements of tapped and bulk densities are used to predict the flow properties and compressibility of powders. These two properties are important for manufacture of solid dosage formulations, such as tablets and capsules. Compounds with low values of tapped and bulk densities may be subject to difficulties in tablet compression, and therefore may require additional processing for improving flow properties. […] Therefore, to improve flow properties a wet granulation process is used prior to tablet compression.

[1] = Mathematical extrapolation of dog data to humans for meglumine salt
[2] = Pharmacokinetics of capsules in dogs, single dose and BID (Example 8); conditions: dogs
Description: Capsules containing 100 mg of Aramchol were dosed to dogs as either the free acid or the meglumine salt.
The complete data-set across all animals and time-points for each dose form (free acid or meglumine salt) were fit to single compartment PK models with first order rate of absorption Ka (h−1) and elimination parameterised by CL and V (rate of elimination=CL/V, h−1). For the meglumine salt group, the first dose data for M5 was removed.
Capsules containing 100 mg of Aramchol were dosed to dogs as either the free acid or the meglumine salt BID. […] A clinical study that investigated the plasma concentration of Aramchol after oral dosing of 300 mg BID at steady state was conducted in 16 healthy volunteers.

[3] = Accelerated stability of Aramchol N-methylglucamine at 40° C./75% RH (Example 5); format: physicochemical; conditions: for assay: calculated against free acid reference
Description: The following parameters were determined at t=0, t=1 week, t=2 weeks: appearance, LC-purity, LC-assay (the assay is calculated against the reference which is the free acid and therefore, the results are less than 100%), water content. The appearance and purity remained unchanged under the investigated conditions. […] The calculated assay remained relatively unchanged under the investigational conditions. Water content increased under the investigational conditions and the material seemed hygroscopic. The attraction of water in the solid state form was more prominent for material stored in an open container.

[4] = water
[5] = In vivo permeability / PK after intrajejunal administration in cannulated rats (Example 7); set-up: species or system male Wistar rats; conditions: rat
Description: An in vivo permeability study of Aramchol salts was performed in male Wistar rats cannulated in the jugular vein and in the jejunum. Intestinal cannulation was performed in order to bypass protonation of Aramchol salts in acidic gastric pH. Aramchol salts solubilized in PBS (30 mg/mL) were administered to rats intestine (jejunum) in a dose of 100 mg/kg (based on free acid), via a cannula inserted into the proximal side of the jejunum. A suspension of Aramchol free acid (in PBS, 30 mg/mL) was administered via the same route and was used as control. Blood samples were withdrawn via a cannula inserted into jugular vein at pre-determined time points (pre-dose, 1 hr, 2 hr, 4 hr, 8 hr, 12 hr, 24 hr post dose). Plasma concentrations of Aramchol (free acid) were measured using a liquid chromatography-tandem mass spectrometry (LC-MS-MS) method by Analyst Bioanalytical Laboratories, Israel. All PK parameters were calculated using non-compartmental analysis. Only those plasma concentrations equal to or greater than the lower limit of quantitation (LOQ) (48.66 ng/mL) were used in the analysis. Plasma concentrations <LOQ that occurred from pre-dose to the first concentration ≥LOQ were treated as 0. Actual sampling times were used for all pharmacokinetic analyses. The following PK parameters were calculated: maximum plasma concentration (Cmax), time to Cmax (Tmax), area under the plasma concentration-time curve from time of administration until the last plasma concentration (AUC0-4), AUC/dose, elimination half-life (t½). Cmax and Tmax were taken directly from the data. Area under the curve from zero to the final sample with a concentration ≥LOQ. AUC0-4 was calculated using the linear trapezoidal method.

[6] = Twice daily administration for 10 days of Aramchol and Aramchol meglumine in humans (Example 9); format: in vivo; conditions: free acid 300 mg, meglumine salt 383 mg
Description: 300 mg aramchol free acid were administered to human subjects twice daily, and 383 mg aramchol meglumine salt were administered to human subjects twice daily, as detailed in FIG. 13.

[7] = Fill weight of size 00 HPMC capsule; format: physicochemical; conditions: hard HPMC capsule size 00, filled as is without tapping
Source text: Aramchol (free acid), and the three salts were filled as are, into hard HPMC (Hypromellose; Capsule size 00 (CapsCanada, ON, Canada) without taping, fill weight is presented in table 9.

[8] = humans, prediction using % CV 24.3
[9] = capsule, Day 1, individual animals, listed as Aramchol meglumine salt
[10] = capsule, Day 1 single dose, Mean
[11] = capsule, Day 11, individual animals, listed as Aramchol meglumine salt
[12] = capsule, Day 11 final dose after BID dosing, Mean
[13] = 100 mg/kg, mean ± standard error

Substance: 3β-arachidylamido-7α,12α-dihydroxy-5β-cholan-24-oic acid N-methylglucamine salt
- Bulk density (Bulk and tapped density): 0.57 g/mL
- Tapped density (Bulk and tapped density): 0.66 g/mL
- AUCss [1]: 144,295 ng*h/mL
- AUCss ([1]; embodiment, b22 and b98 say the value pertains to dogs): 144,295 ng*h/mL
- maximum plasma exposure [1, 8]: 179.382 µg·h/mL
- minimum plasma exposure [1, 8]: 109.208 µg·h/mL
- higher plasma exposure than free acid at the same molar dose [2]: 26%
- AUCss ([2]; 100 mg BID capsules, AUC 0-72 h from last administration on day 11, N = 3): 1,143,428 ng*h/mL
- Cmax ([2]; capsule 100 mg Aramchol, Day 1 single dose, Mean): 4880 ng/mL
- Cmax ([2]; capsule, Day 1, individual animals (1M-3M free acid, 4M-6M meglumine salt), listed as Aramchol meglumine salt): 5770 ng/mL and 1720 ng/mL and 7160 ng/mL
- AUC0-12 [2, 9]: 34.8 µg·h/mL and 3.8 µg·h/mL and 53.2 µg·h/mL
- AUCinf [2, 9]: 205 µg·h/mL and 66.9 µg·h/mL and 440 µg·h/mL
- Half-life [2, 9]: 19.2 h and 23.1 h and 26.1 h
- Tmax [2, 9]: 12 h and 24 h
- AUC0-12 [2, 10]: 30.6 µg·h/mL
- AUCinf [2, 10]: 237 µg·h/mL
- Half-life [2, 10]: 22.8 h
- Tmax [2, 10]: 20 h
- AUC0-12 [2, 11]: 365 µg·h/mL and 302 µg·h/mL and 315 µg·h/mL
- AUCinf [2, 11]: 1600 µg·h/mL and 1150 µg·h/mL and 1590 µg·h/mL
- Cmax [2, 11]: 37600 ng/mL and 38800 ng/mL and 28300 ng/mL
- Half-life [2, 11]: 29.6 h and 28.9 h and 35.3 h
- Tmax [2, 11]: 8 h and 4 h
- AUC0-12 [2, 12]: 328 µg·h/mL
- AUCinf [2, 12]: 1450 µg·h/mL
- Cmax [2, 12]: 34900 ng/mL
- Half-life [2, 12]: 31.3 h
- Tmax [2, 12]: 6.67 h
- greater exposure using the salt (from model Cl) ([2]; compartmental modelling): 28%
- AUCinf from day 11 onwards ([2]; final dose day 11): 1450 µg·h/mL
- AUC0-12 D11 ([2]; final dose day 11, steady state): 328 µg·h/mL
- AUCinf D1 ([2]; first dose day 1, all animals): 237 µg·h/mL
- AUCinf D1 ([2]; first dose day 1, animal 5M (M5) excluded): 323 µg·h/mL
- Cl ([2]; single compartment PK model): 320
- AUCinf higher than the free acid ([2]; single dose day 1, animal 5M excluded): 34%
- purity ([3]; 40° C./75% RH, as a solution in a closed flask, T = 0): 99.5%
- purity ([3]; 40° C./75% RH, as a solution in a closed flask, T = 1 (week)): 99.5%
- purity ([3]; 40° C./75% RH, as a solution in a closed flask, T = 2 (weeks)): 99.5%
- water ([3]; 40° C./75% RH, solid in a closed container, T = 0): 1.2%
- water ([3]; 40° C./75% RH, solid in a closed container, T = 1 (week)): 1.6%
- water ([3]; 40° C./75% RH, solid in a closed container, T = 2 (weeks)): 2.0%
- water ([3]; 40° C./75% RH, solid in an open container, T = 0): 1.2%
- water ([3]; 40° C./75% RH, solid in an open container, T = 1 (week)): 4.3%
- water ([3]; 40° C./75% RH, solid in an open container, T = 2 (weeks)): 5.7%
- purity ([3]; 40° C./75% RH, solid state form in a closed container, T = 0): 99.5%
- purity ([3]; 40° C./75% RH, solid state form in a closed container, T = 1 (week)): 99.4%
- purity ([3]; 40° C./75% RH, solid state form in a closed container, T = 2 (weeks)): 99.5%
- purity ([3]; 40° C./75% RH, solid state form in an open container, T = 0): 99.5%
- purity ([3]; 40° C./75% RH, solid state form in an open container, T = 1 (week)): 99.5%
- purity ([3]; 40° C./75% RH, solid state form in an open container, T = 2 (weeks)): 99.5%
- purity on exposure to 40° C./75% RH ([3]; 40° C./75% RH, up to 2 weeks): no change to purity values
- assay ([3]; solid in a closed container, T = 0): 74.7%
- assay ([3]; solid in a closed container, T = 1 (week)): 72.8%
- assay ([3]; solid in a closed container, T = 2 (weeks)): 74.4%
- assay ([3]; solid in an open container, T = 0): 74.7%
- assay ([3]; solid in an open container, T = 1 (week)): 76.7%
- assay ([3]; solid in an open container, T = 2 (weeks)): 71.9%
- assay ([3]; solution in a closed flask, T = 0): 74.7%
- assay ([3]; solution in a closed flask, T = 1 (week)): 75.3%
- assay ([3]; solution in a closed flask, T = 2 (weeks)): 74.8%
- Dissolved (50 in g in 1) at 50° C. ([4]; Aramchol free acid and base 1:1, 50° C.): Yes
- salt remains in solution after cooling to 20° C. ([4]; cooled to 20° C.): no
- increase in Cmax compared to Aramchol free acid [5]: 3.6 fold
- Cmax ([5]; 100 mg/kg (based on free acid) in PBS 30 mg/mL, plasma Aramchol (free acid), mean ± standard error): 5012.1 ± 1879.9 (5) ng/mL
- AUC(0-t) [5, 13]: 33625.2 ± 9567.7 (5) hr × ng/mL
- AUC/dose [5, 13]: 331.7 ± 82.5 (5) hr × ng × kg/mL × mg
- t1/2 [5, 13]: 5.2 ± 1.0 (5) hr
- Tmax ([5]; 100 mg/kg, median): 4.0 (5) [2-4] hr
- AUCss 0-12 h ([6]; BID for 10 days): 109 µg·h/mL
- Cavg ([6]; BID for 10 days, listed as 3β-arachidylamido-7α,12α-dihydroxy-5β-cholan-24-oic acid-meglumine salt): 8,318 ng/ml
- Cavg ([6]; BID for 10 days, listed as Aramchol Meglumine): 8318 ng/mL
- Cavg ([6]; BID for 10 days, listed as aramchol meglumine salt): 8318 ng/mL
- AUCss ([6]; BID): 109,000 ng*h/mL
- fill weight of one 00 size capsule [7]: 0.30 gram
